Test results from paper PMC6143291 (The Journal of organic chemistry, 2017).
In brackets after ≈: the same amount, converted by molar mass.

Each molecule was assayed on Mtb H37Rv (assay: Microplate Alamar blue assay). Conditions: MABA, 2-fold serial dilution, read on day seven.
Type: cell-based, Mycobacterium tuberculosis
With `O=c1c2ccccc2[se]n1C12CC3CC(CC(C3)C1)C2` [1l, 2-((3R,5S)-Adamantan-1-yl)benzo[d][1,2]-selenazol-3(2H)-one] the MIC was 50 µg/mL (≈ 150 µM).

These molecules were tested against Mtb Ag85C (Mycobacterium tuberculosis, UniProt P9WQN9) (assay: Fluorometric resorufin butyrate assay, apparent IC50 after 15 min incubation). Conditions: not given.
Sequence of Mtb Ag85C (P9WQN9 46-340 limits assumed): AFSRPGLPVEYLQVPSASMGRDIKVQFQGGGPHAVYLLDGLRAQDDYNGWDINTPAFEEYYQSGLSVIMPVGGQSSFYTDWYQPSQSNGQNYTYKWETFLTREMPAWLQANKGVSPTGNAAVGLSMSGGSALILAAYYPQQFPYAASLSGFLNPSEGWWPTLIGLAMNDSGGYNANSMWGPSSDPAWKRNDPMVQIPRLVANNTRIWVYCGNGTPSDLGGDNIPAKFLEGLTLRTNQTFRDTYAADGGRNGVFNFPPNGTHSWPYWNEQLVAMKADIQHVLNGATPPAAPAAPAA
Type: biochemical
In the case of `O=c1c2ccccc2[se]n1-c1ccccc1` [1a, 2-Phenylbenzo[d][1,2]selenazol-3(2H)-one, reference compound], the IC50 is reported as 5.12 µM. For `COc1ccc(Cn2[se]c3ccccc3c2=O)cc1` [1b, 2-(4-Methoxybenzyl)benzo[d][1,2]selenazol-3(2H)-one], the IC50 was 0.54 µM. `COc1ccccc1Cn1[se]c2ccccc2c1=O` [1c, 2-(2-Methoxybenzyl)benzo[d][1,2]selenazol-3(2H)-one] gave an IC50 of 28.6 µM. Molecule `COc1ccc(-n2[se]c3ccccc3c2=O)cc1` [1d, 2-(4-Methoxyphenyl)benzo[d][1,2]selenazol-3(2H)-one] has an IC50 of 1.2 µM. In the case of `O=c1c2ccccc2[se]n1Cc1ccccc1` [1e, 2-Benzylbenzo[d][1,2]selenazol-3(2H)-one], the IC50 is reported as 6.5 µM. Work on `O=c1c2ccccc2[se]n1CC1CCCCC1` [1g, 2-(Cyclohexylmethyl)benzo[d][1,2]selenazol-3(2H)-one] yielded an IC50 of 5.3 µM. Work on `O=c1c2ccccc2[se]n1-c1ccc(F)cc1` [1h, 2-(4-Fluorophenyl)benzo[d][1,2]selenazol-3(2H)-one] yielded an IC50 of 0.72 µM. `O=c1c2ccccc2[se]n1-c1ccccc1F` [1i, 2-(2-Fluorophenyl)benzo[d][1,2]selenazol-3(2H)-one] was tested, and the IC50 was 1 µM. `[N-]=[N+]=Nc1ccc(-n2[se]c3ccccc3c2=O)cc1` [1j, 2-(4-Azidophenyl)benzo[d][1,2]selenazol-3(2H)-one] was tested, and the IC50 was 1.1 µM. For `CC(C)(C)n1[se]c2ccccc2c1=O` [1k, 2-(tert-Butyl)benzo[d][1,2]selenazol-3(2H)-one], the IC50 was 1.5 µM. In the case of `O=c1c2ccccc2[se]n1C1CCCC1` [1m, 2-Cyclopentylbenzo[d][1,2]selenazol-3(2H)-one], the IC50 is reported as 4.1 µM. Molecule `O=c1c2ccccc2[se]n1C1CCCCC1` [1n, 2-Cyclohexylbenzo[d][1,2]selenazol-3(2H)-one] has an IC50 of 3.7 µM. In the case of `[N-]=[N+]=Nc1ccc(NC(=O)c2ccccc2[Se]C#Cc2ccccc2)cc1` [compound 8, N-(4-Azidophenyl)-2-((phenylethynyl)selanyl)-benzamide], the IC50 is reported as over 100 µM. For `O=C(CCCCC1SC[C@@H]2NC(=O)N[C@H]12)NCCOCCOCCOCCNC(=O)CCC(=O)N1Cc2ccccc2-c2nnn(-c3ccc(-n4[se]c5ccccc5c4=O)cc3)c2-c2ccccc21` (stereo partly drawn) [compound 10, N-(13,16-Dioxo-16-(3-(4-(3-oxobenzo[d][1,2]-selenazol-2(3H)-yl)phenyl)-3,9-dihydro-8H-dibenzo[b,f][1,2,3]-triazolo[4,5-d]azocin-8-yl)-3,6,9-trioxa-12-azahexadecyl)-5-((3aS,6aR)-2-oxohexahydro-1H-thieno[3,4-d]imidazol-4-yl)-pentanamide], the IC50 was 2.02 µM.
